Source: US20220289732A1, “HETEROCYCLIC WDR5 INHIBITORS AS ANTI-CANCER COMPOUNDS” (NOVARTIS AG, priority 2019, published 2022)

Key:
[1] = system: MV4-11 cells; experiment: MV4-11 6-day cell growth CTG (CellTiter-Glo) assay; type: cell-based; details: Homo sapiens, MV4-11, 144 h, 6 days, read-out: (c) MLL/WDR5 cell proliferation assay//MLL/WDR5 proliferation MV4:11 Qualified AC50
Summary of the method: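 Exponentially growing MV4-11 AML cells (RPMI 1640, 10% FBS) seeded at 300 cells/well with 12-point 1:3 compound dilutions, top final concentration 50 μM. Viability read by CellTiter-Glo luminescence after 6 days at 37° C; % inhibition vs DMSO-only wells fitted to dose-response for IC50.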

[2] = target: WDR5 (Homo sapiens, UniProt P61964); experiment: WDR5 HTRF binding assay; details: read-out: (a) WDR5 HTRF Pep Val v.1[Inhibitor/IC50]Qualified AC50
Summary of the method: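 6 nM WDR5 and 20 nM biotin-MLL1 WIN peptide (3762-3773) were incubated with compound (12-point, 3-fold dilutions) in pH 7.5 Hepes/NaCl/DTT buffer for 20 min at rt. Streptavidin-APC plus anti-His-Eu were then added for 1 hr, with HTRF read at 665/615. IC50 was fit from control-normalized activity; the counter assay used 15 nM biotin-PEG-His peptide.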

[3] = target: wild type MLL1 four-member complex (MLL1-4C) (Homo sapiens, UniProt P61964); experiment: MLL1 LC-MS assay (SAH production); type: biochemical; details: read-out: (b) MLL LCMS Peptide Val.v.1 Qualified AC50
Summary of the method: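 MLL1-4C (30 nM final) was preincubated 20 min with compound (3-fold dilutions, 8 or 12 points) and SAM in Tris-HCl pH 8.0 buffer. H3K4me0 peptide (histone H3[1-21]-biotin) was then added, giving final 2.5 μM SAM and 10 μM substrate, and reactions ran 120 min at rt. After TFA/d4-SAH quench, SAH was quantified by LC-MS/MS and IC50 fitted from control-normalised activity.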

Row | Compound | AC50 [1] [nM] | IC50 [2] [nM] | AC50 [3] [nM]
1 | CCOc1cc([C@H](C)N2CCc3c(cc(Cn4ccnc4C)cc3-c3nn(C)nc3C)C2=O)ncc1C#N [Example 290] | 10 to 1000 | < 10 | 10 to 1000
2 | CCOc1cc([C@H](C)N2CCc3c(cc(Cn4ccnc4C)cc3-c3nn(C)c(=O)cc3C(F)(F)F)C2=O)ncc1C#N [Example 291] | 10 to 1000 | 10 to 1000 | 10 to 1000
3 | CCOc1cc([C@H](C)N2CCc3c(cc(Cn4ccnc4C)cc3-c3cn(C)c(=O)cc3Cl)C2=O)ncc1C#N [Example 292] | 10 to 1000 | 10 to 1000 | 10 to 1000
4 | CCOc1cc([C@H](C)N2CCc3c(cc(Cn4ccnc4C)cc3-c3nc(C(F)F)nn3C)C2=O)ncc1C#N [Example 293] | 10 to 1000 | 10 to 1000 | 10 to 1000
5 | CCOc1cc([C@H](C)N2CCc3c(cc(Cn4ccnc4C)cc3-n3nc(C)nc3C(F)F)C2=O)ncc1C#N [Example 294] | 10 to 1000 | 10 to 1000 | 10 to 1000
6 | CCOc1cc([C@H](C)N2CCc3c(CN(C)C)cc(Cn4ccnc4C)cc3C2=O)ncc1C#N [Example 295] | 1000 to 25000 | 10 to 1000 | 10 to 1000
7 | COc1cc([C@H](C)N2CCc3c(cc(Cn4ccnc4C)cc3-c3nn(C)c(=O)cc3C(F)(F)F)C2=O)ncc1C#N [Example 296] | 10 to 1000 | 10 to 1000 | 10 to 1000
8 | CCOc1cc(CN2CCc3c(cc(Cn4ccnc4C)cc3-c3cn(C)c(=O)cc3C(F)(F)F)C2=O)ncc1C#N [Example 297] | < 10 | < 10 | 10 to 1000
9 | CCOc1cc(CN2CCc3c(cc(Cn4ccnc4C)cc3-n3nc(C)nc3C(F)F)C2=O)ncc1C#N [Example 298] | 10 to 1000 | < 10 | 10 to 1000
10 | CCOc1cc(CN2CCc3c(cc(Cn4ccnc4C)cc3-c3cn(C)c(=O)cc3C(F)F)C2=O)ncc1C#N [Example 299] | 10 to 1000 | < 10 | 10 to 1000
11 | CCOc1cc(C(C)N2CCc3c(cc(CCN(C)CC)cc3C(C)(O)C(F)(F)F)C2=O)ncc1C#N (stereo not drawn) [Example 304, 4-ethoxy-6-(1-(7-(2-(ethyl(methyl)amino)ethyl)-1-oxo-5-(1,1,1-trifluoro-2-hydroxypropan-2-yl)-3,4-dihydroisoquinolin-2(1H)-yl)ethyl)nicotinonitrile] | 1000 to 25000 | 10 to 1000 | 10 to 1000
12 | CCOc1cc(CN2CCc3c(cc(CCN(C)CC)cc3C(OC)C(F)(F)F)C2=O)ncc1C#N (stereo not drawn) [Example 305, 4-ethoxy-6-((7-(2-(ethyl(methyl)amino)ethyl)-1-oxo-5-(2,2,2-trifluoro-1-methoxyethyl)-3,4-dihydroisoquinolin-2(1H)-yl)methyl)nicotinonitrile] | 10 to 1000 | 10 to 1000 | 10 to 1000
13 | CCOc1cc(C(C)N2CCc3c(cc(CCN(C)CC)cc3C(O)C(C)(C)C)C2=O)ncc1C#N (stereo not drawn) [compound 257] | 10 to 1000 | 10 to 1000 | 10 to 1000
14 | CCOc1cc(C(C)N2CCc3c(cc(CCN(C)CC)cc3C(O)C(F)(F)F)C2=O)ncc1F (stereo not drawn) [compound 260] | 10 to 1000 | 10 to 1000 | 10 to 1000
